Experiments:
Format in all cases: cell-based
E. coli BL21 = test: MIC against Gram-negative bacteria: E. coli BL21; conditions: E. coli BL21; 10 h cultivation at 37° C.; 5×10^5 CFU/mL
Outline: (§1)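 Antibacterial activity of purified human EGF domain proteins: two-fold concentration series, triplicate wells, LB broth, 5×10^5 CFU/mL bacteria, 37° C shaking incubation. The lowest concentration without growth defines the MIC.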

Enterobacter cloacae = test: MIC against Gram-negative bacteria: Enterobacter cloacae; conditions: E. cloacae; 10 h cultivation at 37° C.; 5×10^5 CFU/mL
Outline: as §1

E. coli DH5α = test: Antibacterial activity: MIC and growth curve against E. coli DH5α in 96-well plate; conditions: minimal inhibitory concentration against E. coli DH5α; 96-well plate, 5×10^5 CFU/mL, 37° C., judged after 8 h
Outline: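 Log-phase bacteria (OD600 ~0.5) resuspended in LB at 5×10^5 CFU/mL, exposed to recombinant protein at 50, 25, 12.5 μg/mL final in triplicate, 37 °C shaking at 175 rpm. OD600 read every 30 min; MIC is lowest concentration showing no growth.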

Aeromonas hydrophila = test: MIC against Gram-negative bacteria: Aeromonas hydrophila; conditions: A. hydrophila; 10 h cultivation at 37° C.; 5×10^5 CFU/mL
Outline: as §1

Pseudomonas aeruginosa = test: MIC against Gram-negative bacteria: Pseudomonas aeruginosa; conditions: P. aeruginosa; 10 h cultivation at 37° C.; 5×10^5 CFU/mL
Outline: as §1

Serratia marcescens = test: MIC against Gram-negative bacteria: Serratia marcescens; conditions: S. marcescens; 10 h cultivation at 37° C.; 5×10^5 CFU/mL
Outline: as §1

Proteus vulgaris = test: MIC against Gram-negative bacteria: Proteus vulgaris; conditions: P. vulgaris; 10 h cultivation at 37° C.; 5×10^5 CFU/mL
Outline: as §1

Moraxella catarrhalis = test: MIC against Gram-negative bacteria: Moraxella catarrhalis; conditions: M. catarrhalis; 10 h cultivation at 37° C.; 5×10^5 CFU/mL
Outline: as §1

Proteus mirabilis = test: MIC against Gram-negative bacteria: Proteus mirabilis; conditions: P. mirabilis; 10 h cultivation at 37° C.; 5×10^5 CFU/mL
Outline: as §1

Citrobacter diversus = test: MIC against Gram-negative bacteria: Citrobacter diversus; conditions: C. diversus; 10 h cultivation at 37° C.; 5×10^5 CFU/mL
Outline: as §1

Klebsiella pneumonia = test: MIC against Gram-negative bacteria: Klebsiella pneumonia; conditions: K. pneumonia; 10 h cultivation at 37° C.; 5×10^5 CFU/mL
Outline: as §1

Substance | MIC (μg/mL) E. coli BL21 (E. coli BL21) [µg/mL] | MIC (μg/mL) E. cloacae (Enterobacter cloacae) [µg/mL] | MIC (E. coli DH5α) [µg/mL] | MIC (μg/mL) A. hydrophila (Aeromonas hydrophila) [µg/mL] | MIC (μg/mL) P. aeruginosa (Pseudomonas aeruginosa) [µg/mL] | MIC (μg/mL) S. marcescens (Serratia marcescens) [µg/mL] | MIC (μg/mL) P. vulgaris (Proteus vulgaris) [µg/mL] | MIC (μg/mL) M. catarrhalis (Moraxella catarrhalis) [µg/mL] | MIC (μg/mL) P. mirabilis (Proteus mirabilis) [µg/mL] | MIC (μg/mL) C. diversus (Citrobacter diversus) [µg/mL] | MIC (μg/mL) K. pneumonia (Klebsiella pneumonia) [µg/mL]
PRT183 (ECIPHNGCRHGTCSTPWQCTCDEGWGGLFCD; listed as Homo sapiens) | 12.5 | 12.5 | 12.5 | 25 | 12.5 | 12.5 | 25 | 25 | 12.5 | 12.5 | 25
PRT184 (DLNYCTHHSPCKNGATCSNSGQRSYTCTCRPGYTGVDCE; listed as Homo sapiens) | 12.5 | 25 | 25 | 12.5 | 25 | 25 | 12.5 | 50 | 25 | 25 | 50
PRT185 (ELSECDSNPCRNGGSCKDQEDGYHCLCPPGYYGLHCE; listed as Homo sapiens) | 25 | 50 | 50 | 25 | 12.5 | 50 | 12.5 | 50 | 12.5 | 12.5 | 25
PRT186 (STLSCADSPCFNGGSCRERNQGANYACECPPNFTGSNCE; listed as Homo sapiens) | 50 | 50 | 12.5 | 25 | 12.5 | 12.5 | 25 | 25 | 12.5 | 12.5 | 25
PRT187 (KVDRCTSNPCANGGQCLNRGPSRMCRCRPGFTGTYCE; listed as Homo sapiens) | 12.5 | 25 | 25 | 12.5 | 25 | 25 | 12.5 | 12.5 | 25 | 25 | 12.5
PRT188 (HVSDCARNPCAHGGTCHDLENGLMCTCPAGFSGRRCE; listed as Homo sapiens) | 12.5 | 50 | 12.5 | 12.5 | 50 | 12.5 | 25 | 25 | 12.5 | 12.5 | 12.5
PRT189 (SIDACASSPCFNRATCYTDLSTDTFVCNCPYGFVGSRCE; listed as Homo sapiens) | 12.5 | 25 | 25 | 50 | 25 | 25 | 50 | 12.5 | 25 | 25 | 12.5
PRT190 (ECPLNYCRNGGTCVVEKNGPMCRCRQGWKGNRC; listed as Homo sapiens) | 25 | 12.5 | 12.5 | 25 | 50 | 12.5 | 12.5 | 12.5 | 12.5 | 12.5 | 25
PRT191 (PCLRKYKDFCIHGECKYVKELRAPSCICHPGYHGERCH; listed as Homo sapiens) | 12.5 | 25 | 12.5 | 12.5 | 12.5 | 12.5 | 50 | 12.5 | 12.5 | 25 | 12.5
PRT192 (CPGSGERRICSHHGVCSNEGKCICQPDWTGKDC; listed as Homo sapiens) | 50 | 25 | 25 | 50 | 25 | 12.5 | 50 | 12.5 | 25 | 25 | 12.5
PRT194 (CRSKCHGHGVCDSNRHCYCEEGWAPPDCT; listed as Homo sapiens) | 25 | 12.5 | 12.5 | 12.5 | 12.5 | 12.5 | 25 | 100 | 100 | 12.5 | 25
PRT195 (MGYNCNATTKCKGKGICNNFGNCQCFPGHRPPDCK; listed as Homo sapiens) | 12.5 | 12.5 | 25 | 50 | 50 | 12.5 | 25 | 25 | 50 | 12.5 | 50
PRT197 (LGYDCTTDKCNDRGVCNNKKHCHCSASYLPPDCS; listed as Homo sapiens) | 12.5 | 50 | 50 | 12.5 | 50 | 12.5 | 12.5 | 12.5 | 12.5 | 12.5 | 12.5
PRT198 (CQPKTCNMRGICNNKQHCHCNHEWAPPYC; listed as Homo sapiens) | 12.5 | 12.5 | 12.5 | 25 | 12.5 | 50 | 25 | 25 | 12.5 | 50 | 50
PRT199 (CLPETCNMKGICNNKHHCHCGYGWSPPYCQ; listed as Homo sapiens) | 12.5 | 12.5 | 25 | 12.5 | 12.5 | 25 | 12.5 | 12.5 | 12.5 | 12.5 | 12.5
PRT200 (NFSTCLSSKEGTICSGNGVCSNELKCVCNRHWIGSDCN; listed as Homo sapiens) | 25 | 12.5 | 12.5 | 25 | 50 | 12.5 | 50 | 25 | 12.5 | 50 | 25
